Data taken from patent US11534457B2, “Use of dextran sulfate” (priority 2017, dated 2022).
Entries after “also recorded” stand apart in the source; their conditions may differ.

Key:
[1] = system: Experimental Autoimmune Encephalomyelitis (EAE); experiment: Mouse Experimental Autoimmune Encephalomyelitis (EAE) model, clinical score; format: in vivo, C57B1.6 mice; settings: 10 mg/kg s.c. three times weekly from day 0; day 13, 14, 16, 17, 19, 21 and 26
[2] = system: βIII-tubulin expression in mouse cortical neurons; experiment: βIII-tubulin immunostaining (differentiation-related protein expression); format: cell-based; settings: 48 h
Experimental: Neurons were cultured as 40,000 cells per well and Schwann cells 3,000 cells per. Cells were treated after 24 hours. The number of cells per well depended on the growth phenotype, proliferative capacity, etc.
PNGM was prepared by adding PNGM Singlequots (Lonza) to PNBM medium and pre-warmed to 37° C. Cells were thawed in a 37° C. water bath for no longer than 2 min and gently transferred into a 15 ml tube. 5 ml of medium was gently added drop-wise. Cell suspension was mixed by inverting the tube carefully twice. Cells were counted with a Cellometer AUTO T4 (Nexcelom Bioscience). 40,000 cells per well were seeded in previously coated 96-well plates. Cells were incubated at 37° C. with 5% CO2. […]
LMW-DS was prepared in the culture media of choice for each cell line and added to the respective wells in the doses 0.01 and 0.1 mg/ml. For cell survival assays cells were analyzed after 24 and 48 hours in eight identical wells/dose/time point. Differentiation and protein expression assay was analyzed after 48 hours, also in octuplicates. […]
The Acumen cytometer allows the direct cytometric analysis of attached cells without prior detachment. […] The protein content of the cells can also be directly measured and expressed as either ‘total protein content’ or ‘mean protein content’.

[3] = system: KF3CT system [keratinocytes and HDFn+(IL-1β, TNFα, IFNγ and TGFβ)]; experiment: BioMAP KF3CT system; format: cell-based, Human
Description: (§1) In this study LMW-DS was characterized by profiling in the BioMAP® Diversity PLUS panel. The BioMAP® panel consists of human primary cell-based systems designed to model different aspects of the human body in an in vitro format. The 12 systems in the BioMAP® Diversity PLUS panel (Table 32) allow test agent characterization in an unbiased way across a broad set of systems modeling various human disease states. The BioMA®P systems are constructed with one or more primary cell types from healthy human donors, with stimuli, such as cytokines or growth factors, added to capture relevant signaling networks that naturally occur in human tissue or pathological conditions. […]
(§2) Systems are derived from either single cell types or co-culture systems. […] Test agents prepared in either DMSO (small molecules; final concentration 0.1%) or PBS (biologics) are added at the indicated concentrations 1-hr before stimulation, and remain in culture for 24-hrs or as otherwise indicated (48-hrs, MyoF system; 72-hrs, BT system (soluble readouts); 168-hrs, BT system (secreted IgG)). […] Soluble factors from supernatants are quantified using either HTRF® detection, bead-based multiplex immunoassay or capture ELISA. Overt adverse effects of test agents on cell proliferation and viability (cytotoxicity) are detected by sulforhodamine B (SRB) staining, for adherent cells, and alamarBlue® reduction for cells in suspension. […]

[4] = system: HDF3CGF system [HDFn+(IL-1β, TNFα, IFNγ, EGF, bFGF and PDGF-BB)]; experiment: BioMAP HDF3CGF system; format: cell-based, Human
Description: as §1, with “conditions. Vascular biology is modeled in both a Th1 (3C system) and a Th2 (4H system) inflammatory environment, as well as in a Th1 inflammatory state specific to arterial smooth muscle cells (CASM3C system).” for “conditions.”
as §2, with “suspension. For proliferation assays, individual cell types are cultured at subconfluence and measured at time points optimized for each system (48-hrs: 3C and CASM3C systems; 72-hrs: BT and HDF3CGF systems; 96-hrs: SAg system).” for “suspension.”

“low molecular weight dextran sulfate [LMW-DS]” was tested, and the “mean EAE score vs vehicle control” value [1] was “significantly (#) lower mean score; also recorded: significantly lower mean score”, the βIII-tubulin intensity ([2]; 0.01 and 0.1 mg/ml) was “significantly increased” and the “size of βIII-tubulin positive cells vs control culture” value [2] was “larger”. The Decreased biomarker activity [3] was “MCP-1”, the Increased biomarker activity [3] was “IL-8” and the Decreased biomarker activity ([4]; HDF3CGF system) was “VCAM-1, IP-10,; also recorded: ITAC, MIG, M-CSF”. For the same substance, the Increased biomarker activity ([4]; HDF3CGF system) was “EGFR, MMP-1,; also recorded: PAI-1” and the “key inflammation biomarkers including MIG, VCAM, IP-10 and ITAC” value ([4]; all tested concentrations) was “decreased over all tested concentrations”.
